Data: US20120289541A1 (NOVARTIS AG, priority 2010, published 2012)
Read-outs that look alike come from different tables or passages of the source.

What was measured:
[1] = Non-specific binding to ultrafiltration device in PBS
[2] = cited from earlier work
[3] = External ear dosing of 3% moxigel after 10% or 50% IPM pretreatment, MEF microdialysis; details: 3% moxigel 9 mg external ear, mean
in vitro [4] = test: in vitro
in vitro [5] = type: in vitro ADME; details: bovine, pH 7.4
Description: The volume of serous middle ear fluid (MEF) that accumulates in non-infected chinchillas with Eustachian tube obstruction varies greatly. […] It became necessary to formulate an artificial middle ear fluid (AMEF) that mimics the MEF.

For COc1c(N2C[C@@H]3CCCN[C@@H]3C2)c(F)cc2c(=O)c(C(=O)O)cn(C3CC3)c12 [moxifloxacin], the fraction unbound [1] is listed as about 1, the fraction unbound at 220 μg/ml [1] is listed as 0.97 ± 0.026 and the “mean AUC” value ([2]; human, in vivo, po, 400 mg) is listed as 2170 µg·min/mL. The “concentration observed in plasma” value ([2]; humans, oral dose of 400 mg, Owens & Ambrose 2002) was 2000 ng/mL, the “total (bound plus free) maximum concentration in plasma” value ([2]; humans, oral dose of 400 mg) was 3.1 µg/mL and the “Time to reach 10 μg/mL” value [3] was 618 min. For the same compound, the fraction unbound at 492 μg/ml (in vitro [4]) was 0.75 ± 0.02, the elimination rate constant (high intrabulla dose (150 μg)) was 0.0075 ± 0.0010 min⁻¹ and the elimination rate constant (intrabulla dosing, mean of both doses) was 0.0093 min⁻¹. The elimination rate constant (low intrabulla dose (50 μg)) was 0.0102 ± 0.0040 min⁻¹, the fraction unbound at 220 μg/ml (in vitro [5]; isolated protein) was 0.84 ± 0.063 and the fraction unbound at 492 μg/ml (in vitro [5]; isolated protein) was 0.92 ± 0.013. For the same compound, the fraction unbound (in vitro [5]) was 0.84 to 0.92.
